Among the data in PubChem BioAssay AID1259407 (Chemical Carcinogenesis Research Information System (CCRIS), 2018) are mutagenic call values, retold here.

Active and inactive are the calls of the source. How the calls were made is not given here.

In this data set the test system is CCRIS mutagenicity, Ames/micronucleus/aberration tests. Kind of data set: CCRIS mutagenicity studies.
Where [1] appears, read: Test System: AMES SALMONELLA TYPHIMURIUM, Strain/Indicator: TA98, Metabolic Activation: NONE, Method: STANDARD PLATE.

`COc1cc(C[C@@H](CO)[C@H](CO)Cc2ccc(O)c(OC)c2)ccc1O`: the mutagenic call runs as follows: (Test System: CHINESE HAMSTER V79 CELLS, Strain/Indicator: V79 CELLS (HPRT)/6-THIOGUANINE, Metabolic Activation: NONE, Method: SUSPENSION/PLATE) “inactive; negative”; (Test System: CHINESE HAMSTER V-79, Strain/Indicator: V-79 (HPRT)/6-THIOGUANINE, Metabolic Activation: NONE) “inactive; negative”.

Turning to `CC(C)=C[C@H]1[C@@H](C(=O)OCc2coc(Cc3ccccc3)c2)C1(C)C`, the mutagenic call is “inactive; negative” under setting [1]; “inactive; negative” (Test System: AMES SALMONELLA TYPHIMURIUM, Strain/Indicator: TA98, Metabolic Activation: RAT, LIVER, S-9, AROCLOR 1254, Method: STANDARD PLATE); “inactive; negative” (Test System: AMES SALMONELLA TYPHIMURIUM, Strain/Indicator: TA100, Metabolic Activation: RAT, LIVER, S-9, AROCLOR 1254, Method: STANDARD PLATE); “inactive; negative” (Test System: CHINESE HAMSTER V-79, Strain/Indicator: V-79/6-THIOGUANINE, Metabolic Activation: NONE, Method: STANDARD PLATE); “inactive; negative” (Test System: CHINESE HAMSTER V-79, Strain/Indicator: V-79/6-THIOGUANINE, Metabolic Activation: RAT HEPATOCYTES, Method: STANDARD PLATE); “inactive; negative” (Test System: CHINESE HAMSTER V-79, Strain/Indicator: V-79/OUABAIN, Metabolic Activation: NONE, Method: STANDARD PLATE). In addition, for the setting “Test System: CHINESE HAMSTER V-79, Strain/Indicator: V-79/OUABAIN, Metabolic Activation: RAT HEPATOCYTES, Method: STANDARD PLATE”, the mutagenic call is “inactive; negative”.

With `Nc1ccc2c(n1)[nH]c1ccccc12`, the mutagenic call runs as follows: (Test System: AMES SALMONELLA TYPHIMURIUM, Strain/Indicator: TA98, Metabolic Activation: MONKEY, LIVER, S-9, Method: PREINCUBATION) “active; positive”; (Test System: AMES SALMONELLA TYPHIMURIUM, Strain/Indicator: TA98, Metabolic Activation: RAT, LIVER, S-9, AROCLOR 1254, Method: PREINCUBATION) “active; positive”; (Test System: AMES SALMONELLA TYPHIMURIUM, Strain/Indicator: TA100, Metabolic Activation: RAT, LIVER, S-9, AROCLOR 1254, Method: PREINCUBATION) “active; positive”; (Test System: AMES SALMONELLA TYPHIMURIUM, Strain/Indicator: YG1019, Metabolic Activation: RAT LIVER S-9, AROCLOR, Method: PREINCUBATION) “active; positive”.

For the compound `O=[N+]([O-])C(Cl)Br` (stereo not given), the mutagenic call was “active; positive (weak)” (Test System: Ames Salmonella typhimurium, Strain/Indicator: RSJ100, Metabolic Activation: None, Method: Standard plate); “inactive; negative” (Test System: Ames Salmonella typhimurium, Strain/Indicator: RSJ100, Metabolic Activation: Rat, Liver, S-9, Aroclor, Method: Standard plate); “active; positive (weak)” (Test System: Ames Salmonella typhimurium, Strain/Indicator: TA98, Metabolic Activation: None, Method: Standard plate); “inactive; negative” (Test System: Ames Salmonella typhimurium, Strain/Indicator: TA98, Metabolic Activation: Rat, Liver, S-9, Aroclor, Method: Standard plate); “inactive; negative” (Test System: Ames Salmonella typhimurium, Strain/Indicator: TA100, Metabolic Activation: None, Method: Standard plate); “active; positive” (Test System: Ames Salmonella typhimurium, Strain/Indicator: TA100, Metabolic Activation: Rat, Liver, S-9, Aroclor, Method: Standard plate). In addition, the mutagenic call is “inactive; negative” (Test System: Ames Salmonella typhimurium, Strain/Indicator: TA104, Metabolic Activation: None, Method: Standard plate); “inactive; negative” (Test System: Ames Salmonella typhimurium, Strain/Indicator: TA104, Metabolic Activation: Rat, Liver, S-9, Aroclor, Method: Standard plate); “inactive; negative” (Test System: Ames Salmonella typhimurium, Strain/Indicator: TPT100, Metabolic Activation: None, Method: Standard plate).

As for `O[C@@H]1C=Cc2c(ccc3cc4ccccc4cc23)[C@H]1O`, the mutagenic call (Test System: CHINESE HAMSTER V-79, Strain/Indicator: V-79/OUABAIN, Metabolic Activation: CELL-MEDIATED, Method: STANDARD PLATE) was “active; positive”.

As for `Cc1c2c3ccccc3nc-2n(C)c2c(C)cccc12`, the mutagenic call (Test System: AMES SALMONELLA TYPHIMURIUM, Strain/Indicator: TA97, Metabolic Activation: RAT, LIVER, S-9, AROCLOR 1254, Method: STANDARD PLATE) was “active; positive”.

For `Cc1ccc2cc3c4c(ccc3c3c2c1C[C@H]3O)[C@H](O)[C@@H](O)C=C4`, the mutagenic call (Test System: CHINESE HAMSTER V-79, Strain/Indicator: V-79/8-AZAGUANINE, Metabolic Activation: RAT, LIVER, S-9, AROCLOR, Method: STANDARD PLATE) was “active; positive”.

As to `Cc1cnc2cc(CO)c3c(nc(N)n3C)c2n1`, the mutagenic call by setting is: (Test System: AMES SALMONELLA TYPHIMURIUM, Strain/Indicator: TA98, Metabolic Activation: S-9) “active; positive”; (Test System: AMES SALMONELLA TYPHIMURIUM, Strain/Indicator: TA98, Metabolic Activation: S-9, Method: PREINCUBATION) “active; positive”; (Test System: AMES SALMONELLA TYPHIMURIUM, Strain/Indicator: TA100, Metabolic Activation: S-9, Method: PREINCUBATION) “active; positive”; (Test System: AMES SALMONELLA TYPHIMURIUM, Strain/Indicator: YG1024, Metabolic Activation: S-9) “active; positive”; (Test System: AMES SALMONELLA TYPHIMURIUM, Strain/Indicator: YG1024, Metabolic Activation: S-9, Method: PREINCUBATION) “active; positive”.

For the compound `[Cl][Pd-2]([Cl])([Cl])([Cl])([Cl])[Cl]`, the mutagenic call was “inactive; negative” (Test System: AMES SALMONELLA TYPHIMURIUM, Strain/Indicator: TA97A, Metabolic Activation: NONE, Method: STANDARD PLATE); “inactive; negative” (Test System: AMES SALMONELLA TYPHIMURIUM, Strain/Indicator: TA97A, Metabolic Activation: RAT, LIVER, S-9, PHENOBARBITAL AND 5,6-BENZOFLAVONE, Method: STANDARD PLATE); “inactive; negative” (Test System: AMES SALMONELLA TYPHIMURIUM, Strain/Indicator: TA97A, Metabolic Activation: RAT, LIVER, S-9, PHENOBARBITAL AND BETA-NAPHTHOFLAVONE, Method: STANDARD PLATE); “inactive; negative” under setting [1]; “inactive; negative” (Test System: AMES SALMONELLA TYPHIMURIUM, Strain/Indicator: TA98, Metabolic Activation: RAT, LIVER, S-9, PHENOBARBITAL AND 5,6-BENZOFLAVONE, Method: STANDARD PLATE); “inactive; negative” (Test System: AMES SALMONELLA TYPHIMURIUM, Strain/Indicator: TA98, Metabolic Activation: RAT, LIVER, S-9, PHENOBARBITAL AND BETA-NAPHTHOFLAVONE, Method: STANDARD PLATE). Also, the mutagenic call (Test System: AMES SALMONELLA TYPHIMURIUM, Strain/Indicator: TA100, Metabolic Activation: NONE, Method: STANDARD PLATE) is “inactive; negative”; the mutagenic call (Test System: AMES SALMONELLA TYPHIMURIUM, Strain/Indicator: TA100, Metabolic Activation: RAT, LIVER, S-9, PHENOBARBITAL AND 5,6-BENZOFLAVONE, Method: STANDARD PLATE) is “inactive; negative”; the mutagenic call (Test System: AMES SALMONELLA TYPHIMURIUM, Strain/Indicator: TA100, Metabolic Activation: RAT, LIVER, S-9, PHENOBARBITAL AND BETA-NAPHTHOFLAVONE, Method: STANDARD PLATE) is “inactive; negative”; the mutagenic call (Test System: AMES SALMONELLA TYPHIMURIUM, Strain/Indicator: TA102, Metabolic Activation: NONE, Method: STANDARD PLATE) is “inactive; negative”; the mutagenic call (Test System: AMES SALMONELLA TYPHIMURIUM, Strain/Indicator: TA102, Metabolic Activation: RAT, LIVER, S-9, PHENOBARBITAL AND 5,6-BENZOFLAVONE, Method: STANDARD PLATE) was “inactive; negative”; the mutagenic call (Test System: AMES SALMONELLA TYPHIMURIUM, Strain/Indicator: TA102, Metabolic Activation: RAT, LIVER, S-9, PHENOBARBITAL AND BETA-NAPHTHOFLAVONE, Method: STANDARD PLATE) was “inactive; negative”.

On to `c1cc(-c2ccncc2)ccn1`, for which the mutagenic call is “inactive; negative” (Test System: AMES SALMONELLA TYPHIMURIUM, Strain/Indicator: TA97, Metabolic Activation: RAT, LIVER, S-9, PHENOBARBITAL, Method: STANDARD PLATE); “active; positive” (Test System: AMES SALMONELLA TYPHIMURIUM, Strain/Indicator: TA97, Metabolic Activation: RAT, LIVER, S-9, SODIUM PHENOBARBITAL, Method: PREINCUBATION); “inactive; negative” (Test System: AMES SALMONELLA TYPHIMURIUM, Strain/Indicator: TA98, Metabolic Activation: RAT, LIVER, S-9, PHENOBARBITAL, Method: STANDARD PLATE); “inactive; negative” (Test System: AMES SALMONELLA TYPHIMURIUM, Strain/Indicator: TA100, Metabolic Activation: RAT, LIVER, S-9, PHENOBARBITAL, Method: STANDARD PLATE); “active; positive” (Test System: AMES SALMONELLA TYPHIMURIUM, Strain/Indicator: TA100, Metabolic Activation: RAT, LIVER, S-9, SODIUM PHENOBARBITAL, Method: PREINCUBATION); “inactive; negative” (Test System: AMES SALMONELLA TYPHIMURIUM, Strain/Indicator: TA1535, Metabolic Activation: RAT, LIVER, S-9, PHENOBARBITAL, Method: STANDARD PLATE). Further, the mutagenic call (Test System: AMES SALMONELLA TYPHIMURIUM, Strain/Indicator: TA1537, Metabolic Activation: RAT, LIVER, S-9, PHENOBARBITAL, Method: STANDARD PLATE) was “active; positive” and the mutagenic call (Test System: AMES SALMONELLA TYPHIMURIUM, Strain/Indicator: TA1538, Metabolic Activation: RAT, LIVER, S-9, PHENOBARBITAL, Method: STANDARD PLATE) was “inactive; negative”.
